Results from US20230157996A1, “SMALL-MOLECULE INHIBITOR TARGETING EB VIRUS NUCLEAR ANTIGEN PROTEIN, PREPARATION METHOD AND USE THEREOF” (priority 2020, published 2023).

What follows are molecules tested on C666-1 cells (assay: C666-1 cell viability single concentration (50 μM) inhibition rate (Resazurin)). Details: Homo sapiens, C6661, 72 h, 50 μM compound, 72 hours, C666-1 cells; read-out: C666-1 cell viability single concentration (50 μM) inhibition rate, Ratio* (Inh %).
Format: cell-based
Summary of the method: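 Resazurin fluorescence (560/590 nm, 3 h development) gave the proliferation inhibition rate, normalised to DMSO-treated and cell-free blank wells. Compound was tested at a single 50 μmol/L final concentration on C666-1 cells for 72 h at 37° C, with duplicate wells, after 24 h seeding.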
For `COC(=O)c1cccc(N2CC(Oc3ccc(Oc4ccc(F)cc4)cc3)C2)c1-n1cccc1` [Example 202, Methyl 3-(3-(4-(4-fluorophenoxy)phenoxy)azetidin-1-yl)-2-(1H-pyrrol-1-yl)benzoate], the inhibition at 50 µM was < 10%.
With `O=C(O)c1cccc(N2CC(Oc3ccc(Oc4ccc(F)cc4)cc3)C2)c1-n1cccc1` [Example 203, 3-(3-(4-(4-fluorophenoxy)phenoxy)azetidin-1-yl)-2-(1H-pyrrol-1-yl)benzoic acid] the inhibition at 50 µM was 10 to 30%.
`COC(=O)c1cccc(N2CC(Oc3cc(F)c(Oc4ccccc4)c(F)c3)C2)c1-n1cccc1` [Example 204, Methyl 3-(3-(3,5-difluoro-4-phenoxyphenoxy)azetidin-1-yl)-2-(1H-pyrrol-1-yl)benzoate] was tested, and the inhibition at 50 µM was < 10%.
For `O=C(O)c1cccc(N2CC(Oc3cc(F)c(Oc4ccccc4)c(F)c3)C2)c1-n1cccc1` [Example 205, 3-(3-(3,5-difluoro-4-phenoxyphenoxy)azetidin-1-yl)-2-(1H-pyrrol-1-yl)benzoic acid], the inhibition at 50 µM was < 10%.
With `COC(=O)c1cccc(N2CC(Oc3ccc(Oc4ccc(C(C)=O)cc4)cc3)C2)c1-n1cccc1` [Example 206, Methyl 3-(3-(4-(4-acetylphenoxy)phenoxy)azetidin-1-yl)-2-(1H-pyrrol-1-yl)benzoate] the inhibition at 50 µM was < 10%.
In the case of `CC(=O)c1ccc(Oc2ccc(OC3CN(c4cccc(C(=O)O)c4-n4cccc4)C3)cc2)cc1` [Example 207, 3-(3-(4-(4-acetylphenoxy)phenoxy)azetidin-1-yl)-2-(1H-pyrrol-1-yl)benzoic acid], the inhibition at 50 µM is reported as 10 to 30%.
For `COC(=O)c1cccc(N2CC(Oc3ccc(Sc4ccccc4)cc3)C2)c1-n1cccc1` [Example 208, Methyl 3-(3-(4-(thiophenyl)phenoxy)azetidin-1-yl)-2-(1H-pyrrol-1-yl)benzoate], the inhibition at 50 µM was < 10%.
`O=C(O)c1cccc(N2CC(Oc3ccc(Sc4ccccc4)cc3)C2)c1-n1cccc1` [Example 209, 3-(3-(4-(thiophenyl)phenoxy)azetidin-1-yl)-2-(1H-pyrrol-1-yl)benzoic acid] was tested, and the inhibition at 50 µM was 10 to 30%.
`COC(=O)c1cccc(N2CC(Oc3ccc(Oc4ccc(C#N)cc4)cc3)C2)c1-n1cccc1` [Example 210, Methyl 3-(3-(4-(4-cyanophenoxy)phenoxy)azetidin-1-yl)-2-(1H-pyrrol-1-yl)benzoate] showed an inhibition at 50 µM of 10 to 30%.
For `N#Cc1ccc(Oc2ccc(OC3CN(c4cccc(C(=O)O)c4-n4cccc4)C3)cc2)cc1` [Example 211, 3-(3-(4-(4-cyanophenoxy)phenoxy)azetidin-1-yl)-2-(1H-pyrrol-1-yl)benzoic acid], the inhibition at 50 µM was < 10%.
In the case of `COC(=O)c1cccc(N2CC(Oc3ccc(Oc4ccc(S(C)(=O)=O)cc4)cc3)C2)c1-n1cccc1` [Example 212, Methyl 3-(3-(4-(4-(methylsulfonyl)phenoxy)phenoxy)azetidin-1-yl)-2-(1H-pyrrol-1-yl)benzoate], the inhibition at 50 µM is reported as 10 to 30%.
With `CS(=O)(=O)c1ccc(Oc2ccc(OC3CN(c4cccc(C(=O)O)c4-n4cccc4)C3)cc2)cc1` [Example 213, 3-(3-(4-(4-(methylsulfonyl)phenoxy)phenoxy)azetidin-1-yl)-2-(1H-pyrrol-1-yl)benzoic acid] the inhibition at 50 µM was < 10%.
`CCC(=O)c1ccc(OC2CN(c3cccc(C(=O)OC)c3-n3cccc3)C2)cc1` [Example 214, Methyl 3-(3-(4-propionylphenoxy)azetidin-1-yl)-2-(1H-pyrrol-1-yl)benzoate] was tested, and the inhibition at 50 µM was < 10%.
In the case of `CCC(=O)c1ccc(OC2CN(c3cccc(C(=O)O)c3-n3cccc3)C2)cc1` [Example 215, 3-(3-(4-propionylphenoxy)azetidin-1-yl)-2-(1H-pyrrol-1-yl)benzoic acid], the inhibition at 50 µM is reported as < 10%.
With `COC(=O)c1cccc(N2CC(Oc3ccc(C(=O)C(C)C)cc3)C2)c1-n1cccc1` [Example 216, Methyl 3-(3-(4-isobutyrylphenoxy)azetidin-1-yl)-2-(1H-pyrrol-1-yl)benzoate] the inhibition at 50 µM was < 10%.
With `CC(C)C(=O)c1ccc(OC2CN(c3cccc(C(=O)O)c3-n3cccc3)C2)cc1` [Example 217, 3-(3-(4-isobutyrylphenoxy)azetidin-1-yl)-2-(1H-pyrrol-1-yl)benzoic acid] the inhibition at 50 µM was < 10%.
`COCCOc1ccc(OC2CN(c3cccc(C(=O)OC)c3-n3cccc3)C2)cc1OC` [Example 218, Methyl 3-(3-(3-methoxy-4-(2-methoxyethoxy)phenoxy)azetidin-1-yl)-2-(1H-pyrrol-1-yl)benzoate] gave an inhibition at 50 µM of 10 to 30%.
In the case of `COCCOc1ccc(OC2CN(c3cccc(C(=O)O)c3-n3cccc3)C2)cc1OC` [Example 219, 3-(3-(3-methoxy-4-(2-methoxyethoxy)phenoxy)azetidin-1-yl)-2-(1H-pyrrol-1-yl)benzoic acid], the inhibition at 50 µM is reported as < 10%.
Molecule `COC(=O)c1cccc(N2CC(Oc3ccc(OCCNC(C)=O)c(OC)c3)C2)c1-n1cccc1` [Example 220, Methyl 3-(3-(4-(2-acetylaminoethoxy)-3-methoxyphenoxy)azetidin-1-yl)-2-(1H-pyrrol-1-yl)benzoate] has an inhibition at 50 µM of 10 to 30%.
For `COc1cc(OC2CN(c3cccc(C(=O)O)c3-n3cccc3)C2)ccc1OCCNC(C)=O` [Example 221, 3-(3-(4-(2-acetylaminoethoxy)-3-methoxyphenoxy)azetidin-1-yl)-2-(1H-pyrrol-1-yl)benzoic acid], the inhibition at 50 µM was < 10%.
With `COC(=O)c1cccc(N2CC(Oc3cccc(Oc4ccccc4)c3)C2)c1-n1cccc1` [Example 222, Methyl 3-(3-(3-phenoxyphenoxy)azetidin-1-yl)-2-(1H-pyrrol-1-yl)benzoate] the inhibition at 50 µM was < 10%.
With `O=C(O)c1cccc(N2CC(Oc3cccc(Oc4ccccc4)c3)C2)c1-n1cccc1` [Example 223, 3-(3-(3-phenoxyphenoxy)azetidin-1-yl)-2-(1H-pyrrol-1-yl)benzoic acid] the inhibition at 50 µM was < 10%.
`COCCOc1ccc(OC2CN(c3cccc(C(=O)OC)c3-n3cccc3)C2)cc1` [Example 224, Methyl 3-(3-(4-(2-methoxyethoxy)phenoxy)azetidin-1-yl)-2-(1H-pyrrol-1-yl)benzoate] was tested, and the inhibition at 50 µM was < 10%.
For `COCCOc1ccc(OC2CN(c3cccc(C(=O)O)c3-n3cccc3)C2)cc1` [Example 225, 3-(3-(4-(2-methoxyethoxy)phenoxy)azetidin-1-yl)-2-(1H-pyrrol-1-yl)benzoic acid], the inhibition at 50 µM was 10 to 30%.
For `COC(=O)c1cccc(N2CC(Oc3ccc(NC(=S)Nc4ccc(Cl)cc4)cc3)C2)c1-n1cccc1` [Example 226, Methyl 3-(3-(4-(3-(4-chlorophenyl)thioureido)phenoxy)azetidin-1-yl)-2-(1H-pyrrol-1-yl)benzoate], the inhibition at 50 µM was 10 to 30%.
In the case of `COC(=O)c1cccc(N2CC(Oc3ccc(NC(=S)Nc4cccc(Cl)c4)cc3)C2)c1-n1cccc1` [Example 227, Methyl 3-(3-(4-(3-(3-chlorophenyl)thioureido)phenoxy)azetidin-1-yl)-2-(1H-pyrrol-1-yl)benzoate], the inhibition at 50 µM is reported as 10 to 30%.
`COC(=O)c1cccc(N2CC(Oc3ccc(NC(=S)Nc4cccc(C#N)c4)cc3)C2)c1-n1cccc1` [Example 228, Methyl 3-(3-(4-(3-(3-cyanophenyl)thioureido)phenoxy)azetidin-1-yl)-2-(1H-pyrrol-1-yl)benzoate] was tested, and the inhibition at 50 µM was > 50%.
In the case of `COC(=O)c1cccc(N2CC(Oc3ccc(NC(=O)Nc4ccc(C(F)(F)F)cc4)cc3)C2)c1-n1cccc1` [Example 229, Methyl 3-(3-(4-(3-(4-(trifluoromethyl)phenyl)ureido)phenoxy)azetidin-1-yl)-2-(1H-pyrrol-1-yl)benzoate], the inhibition at 50 µM is reported as > 50%.
Work on `O=C(Nc1ccc(OC2CN(c3cccc(C(=O)O)c3-n3cccc3)C2)cc1)Nc1ccc(C(F)(F)F)cc1` [Example 230, 3-(3-(4-(3-(4-(trifluoromethyl)phenyl)ureido)phenoxy)azetidin-1-yl)-2-(1H-pyrrol-1-yl)benzoic acid] yielded an inhibition at 50 µM of 10 to 30%.
With `O=C(NCc1cccs1)c1cccc(N2CC(Oc3ccc(CO)cc3)C2)c1-n1cccc1` [Example 231, N-(thiophen-2-yl-methyl)-3-(3-(4-(hydroxymethyl)phenoxy)azetidin-1-yl)-2-(1H-pyrrol-1-yl)benzamide] the inhibition at 50 µM was 10 to 30%.
`CCOCc1ccc(OC2CN(c3cccc(C(=O)OCC)c3-n3cccc3)C2)cc1` [Example 232, Ethyl 3-(3-(4-(ethoxymethyl)phenoxy)azetidin-1-yl)-2-(1H-pyrrol-1-yl)benzoate] was tested, and the inhibition at 50 µM was < 10%.
In the case of `CCOCc1ccc(OC2CN(c3cccc(C(=O)O)c3-n3cccc3)C2)cc1` [Example 233, 3-(3-(4-(ethoxymethyl)phenoxy)azetidin-1-yl)-2-(1H-pyrrol-1-yl)benzoic acid], the inhibition at 50 µM is reported as < 10%.
Work on `COC(=O)c1cccc(N2CC(Oc3ccc(CN4CCOCC4)cc3)C2)c1-n1cccc1` [Example 235, Methyl 3-(3-(4-(morpholinylmethyl)phenoxy)azetidin-1-yl)-2-(1H-pyrrol-1-yl)benzoate] yielded an inhibition at 50 µM of 30 to 50%.
For `COC(=O)c1cccc(N2CC(Oc3ccc(COC(=S)Nc4ccc(Cl)cc4)cc3)C2)c1-n1cccc1` [Example 236, Methyl 3-(3-(4-((((4-chlorophenyl)thiocarbamoyl)oxy)methyl)phenoxy)azetidin-1-yl)-2-(1H-pyrrol-1-yl)benzoate], the inhibition at 50 µM was 10 to 30%.
In the case of `O=C(Nc1ccc(Cl)cc1)OCc1ccc(OC2CN(c3cccc(C(=O)O)c3-n3cccc3)C2)cc1` [Example 237], the inhibition at 50 µM is reported as < 10%.
With `CCNC(=S)OCc1ccc(OC2CN(c3cccc(C(=O)OC)c3-n3cccc3)C2)cc1` [Example 238] the inhibition at 50 µM was 10 to 30%.
With `CCNC(=S)OCc1ccc(OC2CN(c3cccc(C(=O)O)c3-n3cccc3)C2)cc1` [Example 239] the inhibition at 50 µM was < 10%.
In the case of `COC(=O)c1cccc(N2CC(Oc3ccc(COc4ccc(Cl)cc4)cc3)C2)c1-n1cccc1` [Example 240, Methyl 3-(3-(4-((4-chlorophenoxy)methyl)phenoxy)azetidin-1-yl)-2-(1H-pyrrol-1-yl)benzoate], the inhibition at 50 µM is reported as < 10%.
In the case of `O=C(O)c1cccc(N2CC(Oc3ccc(COc4ccc(Cl)cc4)cc3)C2)c1-n1cccc1` [Example 241, 3-(3-(4-((4-chlorophenoxy)methyl)phenoxy)azetidin-1-yl)-2-(1H-pyrrol-1-yl)benzoic acid], the inhibition at 50 µM is reported as < 10%.
